Experimental data as given in patent US20200121677A1, “SUBSTITUTED 6,7-DIHYDROPYRAZOLO[1,5-a]PYRAZINES AS NEGATIVE ALLOSTERIC MODULATORS OF MGLUR2 RECEPTORS” (Janssen Pharmaceutica NV, priority 2014, published 2020).

Target: human mGlu2 receptor (Homo sapiens, UniProt Q14416)
Assay: [35S]GTPγS binding assay, mGluR2 negative allosteric modulation (membranes from CHO cells transfected with human mGlu2 receptor, glutamate ~EC80 60 μM);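 further: membranes preincubated 30 min at 30 °C with compound plus glutamate, then [35S]GTPγS (0.1 nM) incorporation measured over another 30 min at 30 °C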
Conditions: for IC50: GTPγS - hmGluR2 anGT pIC50, membranes with human mGlu2 receptor; for IC50 / GTPγS - hmGluR2 anGT pIC50: glutamate ~EC80 (60 μM), pIC50 = -log IC50 (M); for Emax: read-out: GTPγS - hmGluR2 anGT Emax, relative maximal effect: maximal % inhibition relative to the control glutamate response; for GTPγS - hmGluR2 anGT pIC50: membranes with human mGlu2 receptor; for GTPγS - hmGluR2 anGT Emax: relative maximal effect: maximal % inhibition relative to the control glutamate response

Sequence of human mGlu2 receptor (Q14416 19-872): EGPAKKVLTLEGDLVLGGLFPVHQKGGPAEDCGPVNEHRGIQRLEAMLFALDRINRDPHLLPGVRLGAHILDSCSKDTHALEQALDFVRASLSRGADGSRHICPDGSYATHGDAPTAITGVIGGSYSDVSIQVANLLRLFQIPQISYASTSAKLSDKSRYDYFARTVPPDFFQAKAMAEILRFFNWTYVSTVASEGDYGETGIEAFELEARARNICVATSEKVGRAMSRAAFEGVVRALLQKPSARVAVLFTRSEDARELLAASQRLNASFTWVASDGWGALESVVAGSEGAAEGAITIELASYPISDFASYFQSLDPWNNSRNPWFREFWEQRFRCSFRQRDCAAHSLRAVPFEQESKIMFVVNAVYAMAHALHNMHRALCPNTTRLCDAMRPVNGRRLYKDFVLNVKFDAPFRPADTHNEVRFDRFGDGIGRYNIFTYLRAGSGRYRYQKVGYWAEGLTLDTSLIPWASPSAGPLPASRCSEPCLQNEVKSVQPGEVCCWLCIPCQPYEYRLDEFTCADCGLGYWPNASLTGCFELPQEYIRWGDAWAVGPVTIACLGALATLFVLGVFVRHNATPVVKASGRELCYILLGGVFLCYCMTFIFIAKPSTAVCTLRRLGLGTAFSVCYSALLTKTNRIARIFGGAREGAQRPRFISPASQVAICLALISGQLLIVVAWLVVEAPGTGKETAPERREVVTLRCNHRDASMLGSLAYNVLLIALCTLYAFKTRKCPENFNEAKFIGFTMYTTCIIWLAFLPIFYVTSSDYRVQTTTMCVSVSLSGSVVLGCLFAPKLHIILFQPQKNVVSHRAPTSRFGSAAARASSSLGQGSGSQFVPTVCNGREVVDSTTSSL

SMILES | IC50 [M] | Emax [%] | GTPγS - hmGluR2 anGT pIC50 | GTPγS - hmGluR2 anGT Emax [%]
C[C@H]1CN(c2ccc(C(F)(F)F)cc2)C(=O)c2c(C(=O)Nc3ccc(F)nc3)cnn21 [compound 55, (7S)—N-(6-fluoro-3-pyridyl)-7-methyl-4-oxo-5-[4-(trifluoromethyl)phenyl]-6,7-dihydropyrazolo[1,5-a]pyrazine-3-carboxamide] | 5.62e-09 | 101 |  | 
C[C@H]1CN(c2ccc(C(F)(F)F)c(CF)c2)C(=O)c2c(C(=O)Nc3cccnc3)cnn21 [compound 53] |  |  | 8.61 | 114
Cc1cccc(NC(=O)c2cnn3c2C(=O)N(c2ccc(C(F)(F)F)cc2)C[C@@H]3C)n1 [compound 17] |  |  | 7.39 | 107
C[C@H]1CN(c2ccc(C(F)(F)F)cc2)C(=O)c2c(C(=O)NC=O)cnn21 [compound 134] | 6.31e-08 | 103 |  | 
CNC(=O)c1cnn2c1C(=O)N(c1ccc(C(F)(F)F)cc1)C[C@@H]2C [compound 69] | 4.57e-07 | 103 |  | 
Cc1cc(C(=O)NC(=O)c2cnn3c2C(=O)N(c2ccc(C(F)(F)F)cc2)C[C@@H]3C)ccn1 [compound 135, (7S)-7-Methyl-N-(2-methylpyridine-4-carbonyl)-4-oxo-5-[4-(trifluoromethyl)phenyl]-6,7-dihydropyrazolo[1,5-a]pyrazine-3-carboxamide] | 6.92e-07 | 111 |  | 
COCC1CN(c2ccc(C(F)(F)F)cc2)C(=O)c2c(C(=O)Nc3cccnc3)cnn21 (racemic) [compound 165] |  |  | 8.03 | 106
COCC1CN(c2ccc(C(F)(F)F)c(Cl)c2)C(=O)c2c(C(=O)Nc3cccnc3)cnn21 (single isomer, unassigned) [compound 157] | 2.82e-07 | 104 |  | 
COCC1CN(c2ccc(C(F)(F)F)cc2)C(=O)c2c(C(=O)Nc3cnccn3)cnn21 (single isomer, unassigned) [compound 155] |  |  | 6.48 | 106
COCC1CN(c2ccc(C(F)(F)F)cc2)C(=O)c2c(C(=O)Nc3cccnc3)cnn21 (single isomer, unassigned) [compound 159] |  |  | 6.10 | 108
C[C@H]1CN(c2ccc(C(F)(F)F)cc2)C(=O)c2c(C(=O)NC(C)(C)C)cnn21 [compound 68] | 2.63e-07 | 102 |  | 

Next, values leading:

IC50 [M] | Emax [%] | GTPγS - hmGluR2 anGT pIC50 | GTPγS - hmGluR2 anGT Emax [%] | SMILES
1.91e-09 | 108 |  |  | COCC1CN(c2ccc(C(F)(F)F)c(Cl)c2)C(=O)c2c(C(=O)Nc3cccnc3)cnn21 (stereo not shown) [compound 164]
 |  | 7.67 | 112 | COc1ccc(NC(=O)c2cnn3c2C(=O)N(c2ccc(C(F)(F)F)cc2)C[C@@H]3C)nc1 [compound 102]
1.86e-07 | 103 |  |  | C[C@H]1CN(c2ccc(C(F)(F)F)cc2)C(=O)c2c(C(=O)NC3CCOCC3)cnn21 [compound 66]
1.1e-09 |  |  | 106 | C[C@H]1CN(c2ccc(C(F)(F)F)cc2)C(=O)c2c(C(=O)Nc3cncc(F)c3)cnn21 [13a]
4.79e-08 | 110 |  |  | C[C@H]1CN(c2ccc(C(F)(F)F)cc2)C(=O)c2c(C(=O)Nc3ncccc3F)cnn21 [compound 12]
2e-07 | 104 |  |  | C[C@H]1CN(c2ccc(C(F)(F)F)cc2)C(=O)c2c(C(=O)NCc3ccccc3)cnn21 [compound 67]
1.02e-08 | 107 |  |  | COCC1CN(c2ccc(C(F)(F)F)cc2)C(=O)c2c(C(=O)Nc3cnccn3)cnn21 (stereo not shown) [compound 163]
1.7e-09 | 102 |  |  | C[C@H]1CN(c2ccc(C(F)(F)F)cc2)C(=O)c2c(C(=O)Nc3ccccc3)cnn21 [compound 57, (7S)-7-Methyl-4-oxo-N-phenyl-5-[4-(trifluoromethyl)phenyl]-6,7-dihydropyrazolo[1,5-a]pyrazine-3-carboxamide]
 |  | 7.69 | 104 | COCc1cc(NC(=O)c2cnn3c2C(=O)N(c2ccc(C(F)(F)F)cc2)C[C@@H]3C)ccn1 [compound 149]
